The values that follow come from paper PMC10910545, “The crystal structure of mycothiol disulfide reductase (Mtr) provides mechanistic insight into the specific low-molecular-weight thiol reductase activity of Actinobacteria” (Acta Crystallographica. Section D, Structural Biology, 2024).

SMILES strings stand for the structures.

Assay [1] has as its target T1, Mtr Re (mycothiol disulfide reductase) (Rhodococcus erythropolis, UniProt C0ZY75).
T1 construct: full-length, 458 residues, pET-22b(+) NdeI/XhoI, E. coli BL21(DE3); homodimer about 100 kDa
Briefly: X-ray crystal structure, […] A. The settings on record: copurified cofactor, one FAD per monomer; redox-active Cys39-Cys44 on si face. In kind it is binding.

For assay [2], the target named is T2, Mtr Ms (mycothiol disulfide reductase) (Mycolicibacterium smegmatis, UniProt A0QVL0).
T2 construct: gene MSMEG_2611; full-length, 461 residues, pET-22b(+) NdeI/XhoI, E. coli BL21(DE3); homodimer about 100 kDa
In words: UV-Vis A465/A280 ratio and yellow crystals. It is filed as binding. As to conditions: copurified cofactor; FAD not modelled in the 4.7 A structure.

T2 sequence (A0QVL0 1-461): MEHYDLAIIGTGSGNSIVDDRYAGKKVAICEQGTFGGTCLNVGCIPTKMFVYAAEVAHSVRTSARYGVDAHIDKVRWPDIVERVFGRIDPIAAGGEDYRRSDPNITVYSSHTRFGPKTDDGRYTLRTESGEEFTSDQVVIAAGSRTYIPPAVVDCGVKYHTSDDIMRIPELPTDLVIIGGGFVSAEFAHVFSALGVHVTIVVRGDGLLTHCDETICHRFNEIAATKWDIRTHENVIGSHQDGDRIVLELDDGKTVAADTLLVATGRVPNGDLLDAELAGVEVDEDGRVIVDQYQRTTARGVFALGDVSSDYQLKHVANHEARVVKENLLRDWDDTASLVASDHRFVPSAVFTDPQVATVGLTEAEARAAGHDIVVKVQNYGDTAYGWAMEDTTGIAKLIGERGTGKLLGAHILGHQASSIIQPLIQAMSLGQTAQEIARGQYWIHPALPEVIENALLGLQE
T1 sequence (C0ZY75 entry or part of it): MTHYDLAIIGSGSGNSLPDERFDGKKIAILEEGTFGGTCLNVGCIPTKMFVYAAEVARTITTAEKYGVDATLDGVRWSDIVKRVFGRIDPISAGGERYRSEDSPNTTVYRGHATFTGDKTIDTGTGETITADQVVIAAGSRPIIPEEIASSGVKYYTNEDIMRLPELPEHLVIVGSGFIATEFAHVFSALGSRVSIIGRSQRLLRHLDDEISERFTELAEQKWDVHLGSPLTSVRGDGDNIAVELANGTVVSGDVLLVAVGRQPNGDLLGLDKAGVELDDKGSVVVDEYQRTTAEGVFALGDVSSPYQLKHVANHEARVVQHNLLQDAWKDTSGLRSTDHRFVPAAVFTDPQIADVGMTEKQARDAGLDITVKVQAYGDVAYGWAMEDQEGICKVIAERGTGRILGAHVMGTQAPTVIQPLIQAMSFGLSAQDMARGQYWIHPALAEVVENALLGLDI

For `Cc1cc2nc3c(=O)[nH]c(=O)nc-3n(C[C@H](O)[C@H](O)[C@H](O)COP(=O)(O)OP(=O)(O)OC[C@H]3O[C@@H](n4cnc5c(N)ncnc54)[C@H](O)[C@@H]3O)c2cc1C` [FAD], the “X-ray crystal structure, 2.9 A” value in assay [1] was “In Mtr Re , both monomers show strong density for the FAD cofactor”. Moreover, the “UV-Vis A465/A280 ratio and yellow crystals” value in assay [2] is given as “support the presence of FAD in both proteins”.
